Among the test systems are ACHN; BT-549; CAKI-1; COLO 205; DU-145; EKVX; HCT-15; HOP-92; Hs-578T; LOX IMVI; MCF7; MOLT-4; NCI-H226; PC-3; SF-539; SK-MEL-5; SNB-19; SNB-75; UACC-62.
Common to all, as to test: NCI anticancer screen, dose series, 48 h

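These data come from cells grown in 96-well plates and exposed to compound for 48 hours at five concentrations. The concentration for 50% growth inhibition is given as GI50.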 Calls of active or inactive are those of the source. Rule as the data show it: active = GI50 up to about 1.1 µM and inactive = higher.

As for `CCN(CC)CCNc1ccc(/N=N/c2ccc(S(N)(=O)=O)cc2)c2ccccc12`, the GI50 with ACHN was 13 µM (inactive); with BT-549, 13.6 µM (inactive); in the test on CAKI-1, 13.7 µM (inactive); in the test on COLO 205, 4.24 µM (inactive); in the test with DU-145 it was 12 µM (inactive); in the test on EKVX, 19 µM (inactive). Also, the GI50 with HCT-15 is 4.52 µM; with HOP-92, 14.9 µM (inactive); in the test with Hs-578T, 15.5 µM (inactive); in the test on LOX IMVI, 2.65 µM (inactive); with MCF7, 6.73 µM (inactive); in the test on MOLT-4, 6.25 µM (inactive). The GI50 was 23.6 µM (inactive) in the test on NCI-H226; 6.93 µM (inactive) in the test with PC-3; 3.63 µM (inactive) in the test on SF-539; 5.06 µM (inactive) in the test with SK-MEL-5; 11.9 µM (inactive) in the test with SNB-19; 10.3 µM (inactive) with SNB-75. In the test on UACC-62, the GI50 was 8.61 µM (inactive).
Take `O=c1[nH][nH]c(=O)n1/N=C/c1ccccc1`: the GI50 with ACHN, with BT-549, in the test with CAKI-1, in the test with COLO 205, in the test with DU-145 and in the test with EKVX was > 100 µM (inactive) in each case. In addition, the GI50 is more than 100 µM in the test with HCT-15; > 100 µM (inactive) with HOP-92; > 100 µM (inactive) with Hs-578T; > 100 µM (inactive) with LOX IMVI; > 100 µM (inactive) in the test on MCF7; > 100 µM (inactive) in the test on MOLT-4. The GI50 in the test with NCI-H226, with PC-3, in the test with SF-539, in the test with SK-MEL-5, in the test on SNB-19 and in the test with SNB-75 was > 100 µM (inactive) in each case. Also, the GI50 in the test on UACC-62 was > 100 µM (inactive).
`CC[C@]12C=CCN3CC[C@@]4(c5cc(N=O)c(OC)cc5N(C)[C@H]4[C@@](O)(C(=O)NC(Cc4c[nH]c5ccccc45)C(=O)OC)[C@@H]1O)[C@@H]32` (stereo not given in full): the GI50 with ACHN is 18.9 µM (inactive); with BT-549, 14.9 µM (inactive); in the test with CAKI-1, 17.9 µM (inactive); in the test with COLO 205, 15.4 µM (inactive); in the test on DU-145 it was 17.2 µM (inactive); with EKVX, 20.9 µM (inactive). Also, the GI50 in the test on HCT-15 is 20.3 µM; in the test on HOP-92, 12.3 µM (inactive); in the test on Hs-578T, 22.4 µM (inactive); with LOX IMVI it was 16.7 µM (inactive); with MCF7 it was 15.3 µM (inactive); in the test with MOLT-4, 1.46 µM (inactive). The GI50 with NCI-H226 was 24.5 µM (inactive); in the test on PC-3, 11.5 µM (inactive); in the test with SF-539 it was 16.6 µM (inactive); in the test with SK-MEL-5, 14.8 µM (inactive); in the test with SNB-19, 19.9 µM (inactive); in the test with SNB-75 it was 15 µM (inactive). The GI50 in the test on UACC-62 was 16 µM (inactive).
Regarding `O=C1NC(=O)C(Cc2ccccc2)(c2cccnc2)N1` (stereo not given), the GI50 in the test on ACHN, in the test with BT-549, in the test with CAKI-1, in the test on COLO 205, with DU-145 and in the test with EKVX was > 100 µM (inactive) in each case. In addition, the GI50 in the test with HCT-15 is more than 100 µM; in the test on HOP-92, > 100 µM (inactive); with Hs-578T, > 100 µM (inactive); in the test with LOX IMVI it was > 100 µM (inactive); in the test on MCF7, > 100 µM (inactive); in the test with MOLT-4 it was > 100 µM (inactive). Further, the GI50 in the test on NCI-H226, in the test on PC-3, with SF-539, in the test with SK-MEL-5, in the test with SNB-19 and with SNB-75 was > 100 µM (inactive) throughout. In the test on UACC-62, the GI50 was > 100 µM (inactive).
With `COC(=O)[C@]1(NC(=O)c2ccccc2)C[C@H]1C=O`, the GI50 with ACHN is > 100 µM (inactive); in the test with BT-549 it was 98.2 µM (inactive); in the test with CAKI-1, > 100 µM (inactive); in the test with COLO 205, > 100 µM (inactive); with DU-145, > 100 µM (inactive); in the test on EKVX, > 100 µM (inactive). Further, the GI50 with HCT-15 was more than 90.6 µM; with HOP-92 it was > 100 µM (inactive); in the test with Hs-578T it was > 55.5 µM (inactive); with LOX IMVI, 98.6 µM (inactive); in the test on MCF7, > 100 µM (inactive); in the test on MOLT-4 it was > 64.7 µM (inactive). Further, the GI50 in the test with NCI-H226 was 46.7 µM (inactive); in the test on PC-3 it was > 100 µM (inactive); in the test on SF-539, > 100 µM (inactive); in the test on SK-MEL-5, > 100 µM (inactive); in the test with SNB-19 it was > 100 µM (inactive); with SNB-75, > 42.9 µM (inactive). Moreover, the GI50 in the test with UACC-62 was > 64.7 µM (inactive).
As to `CCCCCCCCCCCC[C@@H](O)[C@H]1CC[C@H]([C@H]2CC[C@H]([C@H](O)CC[C@H](O)CCCCCCCC3=C[C@H](C)OC3=O)O2)O1`, the GI50 is 0.0933 µM (active) in the test with ACHN; 0.00352 µM (active) with BT-549; 2.67 µM (inactive) with CAKI-1; 1.86 µM (inactive) with COLO 205; 3.38 µM (inactive) with DU-145; 1.1 µM (active) in the test with EKVX. Moreover, the GI50 is 2.03 µM with HCT-15; 2.16 µM (inactive) with HOP-92; 2.18 µM (inactive) with Hs-578T; 1.17 µM (inactive) in the test on LOX IMVI; 1.15 µM (inactive) in the test on MCF7; 1.84 µM (inactive) in the test with MOLT-4. Also, the GI50 in the test with NCI-H226 is 1.67 µM (inactive); in the test on PC-3, 1.55 µM (inactive); in the test with SF-539, 1.68 µM (inactive); with SK-MEL-5, 1.38 µM (inactive); in the test with SNB-19, 1.23 µM (inactive); in the test on SNB-75, 1.75 µM (inactive). Further, the GI50 in the test with UACC-62 is 1.02 µM (active).
As to `CCOC(=O)CN1CCNCCN(CC(=O)OCC)CCNCC1`, the GI50 in the test on ACHN, in the test with BT-549, in the test on CAKI-1, in the test on COLO 205, with DU-145 and with EKVX was > 100 µM (inactive) each time. In addition, the GI50 was more than 100 µM with HCT-15; > 100 µM (inactive) with HOP-92; > 100 µM (inactive) in the test on Hs-578T; > 100 µM (inactive) with LOX IMVI; > 100 µM (inactive) with MCF7; > 100 µM (inactive) in the test with MOLT-4. The GI50 with NCI-H226, in the test with PC-3, in the test on SF-539, in the test on SK-MEL-5, in the test with SNB-19 and in the test on SNB-75 was > 100 µM (inactive) each time. Further, the GI50 with UACC-62 is > 100 µM (inactive).
As for `CCN(Cc1cc(Cl)cc(C)c1O)Cc1c(O)ccc2ccccc12`, the GI50 with ACHN is 17.3 µM (inactive); with BT-549 it was 13.3 µM (inactive); with CAKI-1 it was 15.3 µM (inactive); in the test with COLO 205 it was 22.7 µM (inactive); with DU-145 it was 20.2 µM (inactive); in the test on EKVX, 17.3 µM (inactive). The GI50 in the test on HCT-15 is 14.6 µM; with HOP-92, 11.2 µM (inactive); in the test on Hs-578T, 15.9 µM (inactive); in the test with LOX IMVI it was 18.2 µM (inactive); in the test on MCF7, 19.9 µM (inactive); in the test on MOLT-4, 5.36 µM (inactive). Further, the GI50 in the test with NCI-H226 is 19.1 µM (inactive); in the test on PC-3, 15.5 µM (inactive); in the test on SF-539 it was 13.3 µM (inactive); with SK-MEL-5 it was 14.9 µM (inactive); in the test with SNB-19, 18.5 µM (inactive); in the test on SNB-75, 11.7 µM (inactive). Further, in the test on UACC-62, the GI50 is 15.7 µM (inactive).
Take `N#Cc1ccccc1-c1nc2c3c(c(N)ccc3n1)C(=O)c1ccccc1-2`: the GI50 in the test on ACHN was 22.2 µM (inactive); with BT-549 it was > 100 µM (inactive); in the test with CAKI-1, 8.3 µM (inactive); in the test with COLO 205 it was 26.4 µM (inactive); in the test with DU-145, 64.1 µM (inactive); in the test with EKVX it was 30.3 µM (inactive). Moreover, the GI50 with HCT-15 is 31.8 µM; in the test with HOP-92, > 100 µM (inactive); in the test on Hs-578T, 33.2 µM (inactive); in the test on LOX IMVI, 27.9 µM (inactive); in the test on MCF7 it was 17.6 µM (inactive); with MOLT-4, 32.3 µM (inactive). Further, the GI50 in the test with NCI-H226 is 35.2 µM (inactive); with PC-3, 23.7 µM (inactive); with SF-539, 37.3 µM (inactive); with SK-MEL-5 it was 32.1 µM (inactive); in the test with SNB-19, 55.1 µM (inactive); in the test with SNB-75, 50.2 µM (inactive). Moreover, in the test on UACC-62, the GI50 was 64.6 µM (inactive).
For the compound `CCOC(=O)C#Cc1ccc([N+](=O)[O-])cc1`, the GI50 with ACHN is 3.21 µM (inactive); with BT-549 it was 2.18 µM (inactive); in the test on CAKI-1, 1.87 µM (inactive); in the test on COLO 205, 1.72 µM (inactive); with DU-145, 1.74 µM (inactive); in the test on EKVX it was 3.15 µM (inactive). In addition, the GI50 in the test with HCT-15 is 1.82 µM; in the test on HOP-92 it was 1.8 µM (inactive); in the test with Hs-578T, 4.18 µM (inactive); in the test with LOX IMVI, 1.34 µM (inactive); in the test with MCF7 it was 1.24 µM (inactive); in the test on MOLT-4, 1.73 µM (inactive). The GI50 in the test with NCI-H226 is 2.68 µM (inactive); with PC-3, 2.72 µM (inactive); with SF-539, 2.06 µM (inactive); in the test on SK-MEL-5 it was 2.67 µM (inactive); in the test with SNB-19, 13 µM (inactive); in the test with SNB-75 it was 2.24 µM (inactive). Besides, in the test on UACC-62, the GI50 was 1.98 µM (inactive).

The record behind these values is ChEMBL document CHEMBL1201862, “PubChem BioAssay data set” (2004).
